Results: US20230085307A1, “PYRIDAZINONE COMPOUND AND HERBICIDE” (NISSAN CHEMICAL CORPORATION, priority 2019, published 2023)

Legend:
green foxtail [1] = assay: Test Example 5: herbicidal effect by foliage application, plastic box (Table 20, symbol G); type: in vivo, green foxtail (Setaria viridis); settings: 320 g/ha
Method in brief: (§1)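 Plants were sown into sterilized diluvial soil under about 1.5 cm cover and kept in a greenhouse at 25° C. to 30° C. Fourteen days on, foliage received an even spray of the diluted emulsion. Herbicidal or crop effect was judged three weeks afterwards.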

false cleavers = assay: Test Example 4: herbicidal effect by soil treatment (Table 19, symbol Q); type: in vivo, false cleavers (Galium spurium); settings: amount of applied herbicide 320 g/ha
Method in brief: (§2)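 In this soil treatment, the formulated compound reached the seeds only through the soil: seeds were buried about 1.5 cm deep in sterilized diluvial soil, then the diluted emulsion was sprayed over the surface. After three weeks at 25° C. to 30° C. in a greenhouse, effects were graded on criteria from an earlier test.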

barnyard grass [2] = assay: Test Example 5: herbicidal effect by foliage application, plastic box (Table 20, symbol H); type: in vivo, barnyard grass (Echinochloa crus-galli); settings: 320 g/ha
Method in brief: as §1

southern crabgrass [3] = assay: Test Example 5: herbicidal effect by foliage application, plastic box (Table 20, symbol F); type: in vivo, southern crabgrass (Digitaria ciliaris); settings: 320 g/ha
Method in brief: as §1

Chinese sprangletop = assay: Test Example 3: herbicidal effect by foliage application, Wagner pot (Table 18, symbol D); type: in vivo, chinese sprangletop (Leptochloa chinensis); settings: amount of applied herbicide 320 g/ha
Method in brief: (§3)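 Plants were sown in alluvial soil held under 0.1–0.5 cm standing water and grown 14 days in a greenhouse at 25–30 °C. An emulsifiable formulation, water-diluted to the set dose, was then sprayed onto the foliage, and effects were scored three weeks later using previously defined criteria.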

blackgrass [4] = assay: Test Example 4: herbicidal effect by soil treatment (Table 19, symbol J); type: in vivo, blackgrass (Alopecurus myosuroides); settings: amount of applied herbicide 320 g/ha
Method in brief: as §2

blackgrass [5] = assay: Test Example 5: herbicidal effect by foliage application, plastic box (Table 20, symbol J); type: in vivo, blackgrass (Alopecurus myosuroides); settings: 320 g/ha
Method in brief: as §1

oval-leafed pondweed = assay: Test Example 1: herbicidal activity, application before weed generation under submerged conditions (Table 16, symbol C); type: in vivo, oval-leafed pondweed (Monochoria vaginalis); settings: amount of applied herbicide 320 g/ha
Method in brief: (§4)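 Emulsion formulation, water-diluted to set dose, was put onto the flooded surface (4 cm depth, alluvial soil) the same day weeds were sown and 2.5-leaf rice transplanted. After 3 weeks at 25-30 °C under glass, each species was rated 0 (≤5% kill) to 5 (≥90% kill).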

wild oat [6] = assay: Test Example 5: herbicidal effect by foliage application, plastic box (Table 20, symbol I); type: in vivo, wild oat (Avena fatua); settings: 320 g/ha
Method in brief: as §1

redroot pigweed [7] = assay: Test Example 4: herbicidal effect by soil treatment (Table 19, symbol N); type: in vivo, redroot pigweed (Amaranthus retroflexus); settings: amount of applied herbicide 320 g/ha
Method in brief: as §2

windgrass [8] = assay: Test Example 4: herbicidal effect by soil treatment (Table 19, symbol L); type: in vivo, windgrass (Apera spica-venti); settings: amount of applied herbicide 320 g/ha
Method in brief: as §2

lambsquarters [9] = assay: Test Example 4: herbicidal effect by soil treatment (Table 19, symbol O); type: in vivo, lambsquarters (Chenopodium album); settings: amount of applied herbicide 320 g/ha
Method in brief: as §2

Italian ryegrass [10] = assay: Test Example 5: herbicidal effect by foliage application, plastic box (Table 20, symbol K); type: in vivo, Italian ryegrass (Lolium multiflorum); settings: 320 g/ha
Method in brief: as §1

wild oat [11] = assay: Test Example 4: herbicidal effect by soil treatment (Table 19, symbol I); type: in vivo, wild oat (Avena fatua); settings: amount of applied herbicide 320 g/ha
Method in brief: as §2

green foxtail [12] = assay: Test Example 4: herbicidal effect by soil treatment (Table 19, symbol G); type: in vivo, green foxtail (Setaria viridis); settings: amount of applied herbicide 320 g/ha
Method in brief: as §2

barnyard grass [13] = assay: Test Example 4: herbicidal effect by soil treatment (Table 19, symbol H); type: in vivo, barnyard grass (Echinochloa crus-galli); settings: amount of applied herbicide 320 g/ha
Method in brief: as §2

Japanese bulrush = assay: Test Example 1: herbicidal activity, application before weed generation under submerged conditions (Table 16, symbol B); type: in vivo, Japanese bulrush (Schoenoplectus juncoides); settings: amount of applied herbicide 320 g/ha
Method in brief: as §4

rice flat sedge = assay: Test Example 3: herbicidal effect by foliage application, Wagner pot (Table 18, symbol E); type: in vivo, rice flat sedge (Cyperus iria); settings: amount of applied herbicide 320 g/ha
Method in brief: as §3

chickweed [14] = assay: Test Example 5: herbicidal effect by foliage application, plastic box (Table 20, symbol P); type: in vivo, common chickweed (Stellaria media); settings: 320 g/ha
Method in brief: as §1

persian speedwell [15] = assay: Test Example 5: herbicidal effect by foliage application, plastic box (Table 20, symbol R); type: in vivo, Persian speedwell (Veronica persica); settings: 320 g/ha
Method in brief: as §1

southern crabgrass [16] = assay: Test Example 4: herbicidal effect by soil treatment (Table 19, symbol F); type: in vivo, southern crabgrass (Digitaria ciliaris); settings: amount of applied herbicide 320 g/ha
Method in brief: as §2

Italian ryegrass [17] = assay: Test Example 4: herbicidal effect by soil treatment (Table 19, symbol K); type: in vivo, Italian ryegrass (Lolium multiflorum); settings: amount of applied herbicide 320 g/ha
Method in brief: as §2

barnyard grass [18] = assay: Test Example 3: herbicidal effect by foliage application, Wagner pot (Table 18, symbol H); type: in vivo, barnyard grass (Echinochloa crus-galli); settings: amount of applied herbicide 320 g/ha
Method in brief: as §3

velvetleaf [19] = assay: Test Example 5: herbicidal effect by foliage application, plastic box (Table 20, symbol M); type: in vivo, velvetleaf (Abutilon theophrasti); settings: 320 g/ha
Method in brief: as §1

velvetleaf [20] = assay: Test Example 4: herbicidal effect by soil treatment (Table 19, symbol M); type: in vivo, velvetleaf (Abutilon theophrasti); settings: amount of applied herbicide 320 g/ha
Method in brief: as §2

lambsquarters [21] = assay: Test Example 5: herbicidal effect by foliage application, plastic box (Table 20, symbol O); type: in vivo, lambsquarters (Chenopodium album); settings: 320 g/ha
Method in brief: as §1

persian speedwell [22] = assay: Test Example 4: herbicidal effect by soil treatment (Table 19, symbol R); type: in vivo, Persian speedwell (Veronica persica); settings: amount of applied herbicide 320 g/ha
Method in brief: as §2

redroot pigweed [23] = assay: Test Example 5: herbicidal effect by foliage application, plastic box (Table 20, symbol N); type: in vivo, redroot pigweed (Amaranthus retroflexus); settings: 320 g/ha
Method in brief: as §1

late watergrass = assay: Test Example 1: herbicidal activity, application before weed generation under submerged conditions (Table 16, symbol A); type: in vivo, late watergrass (Echinochloa oryzicola); settings: amount of applied herbicide 320 g/ha
Method in brief: as §4

windgrass [24] = assay: Test Example 5: herbicidal effect by foliage application, plastic box (Table 20, symbol L); type: in vivo, windgrass (Apera spica-venti); settings: 320 g/ha
Method in brief: as §1

chickweed [25] = assay: Test Example 4: herbicidal effect by soil treatment (Table 19, symbol P); type: in vivo, common chickweed (Stellaria media); settings: amount of applied herbicide 320 g/ha
Method in brief: as §2

[26] = foliage application, three weeks after application
[27] = foliage application after 14-day growth, evaluated three weeks after application

COc1ccccc1-c1sc2ccc(F)cc2c1-c1c(O)c(C)nn(CC#N)c1=O [2-431]
G: green foxtail, herbicidal effect grade (green foxtail [1]; [26]): 0 (Herbicidal rate of 5% or less (almost no effect)) | herbicidal effect, Q: false cleavers (false cleavers): 0 (Herbicidal rate of 5% or less (almost no effect)) | H: barnyard grass, herbicidal effect grade (barnyard grass [2]; [26]): 0 (Herbicidal rate of 5% or less (almost no effect)) | F: southern crabgrass, herbicidal effect grade (southern crabgrass [3]; [26]): 0 (Herbicidal rate of 5% or less (almost no effect)) | herbicidal effect on D: Chinese sprangletop (Chinese sprangletop): 3 (Herbicidal rate of 40% or more and less than 70%) | herbicidal effect, J: blackgrass (blackgrass [4]): 0 (Herbicidal rate of 5% or less (almost no effect)) | J: blackgrass, herbicidal effect grade (blackgrass [5]; [26]): 0 (Herbicidal rate of 5% or less (almost no effect)) | Herbicidal effect, C: oval-leafed pondweed (oval-leafed pondweed): 0 (Herbicidal rate of 5% or less (almost no effect)) | I: wild oat, herbicidal effect grade (wild oat [6]; [26]): 0 (Herbicidal rate of 5% or less (almost no effect)) | herbicidal effect, N: redroot pigweed (redroot pigweed [7]): 5 (Herbicidal rate of 90% or more (almost completely withered)) | herbicidal effect, L: windgrass (windgrass [8]): 0 (Herbicidal rate of 5% or less (almost no effect)) | herbicidal effect, O: lambsquarters (lambsquarters [9]): 1 (Herbicidal rate of 5% or more and less than 20%) | K: Italian ryegrass, herbicidal effect grade (Italian ryegrass [10]; [26]): 0 (Herbicidal rate of 5% or less (almost no effect)) | herbicidal effect, I: wild oat (wild oat [11]): 0 (Herbicidal rate of 5% or less (almost no effect)) | herbicidal effect, G: green foxtail (green foxtail [12]): 0 (Herbicidal rate of 5% or less (almost no effect)) | herbicidal effect, H: barnyard grass (barnyard grass [13]): 0 (Herbicidal rate of 5% or less (almost no effect)) | Herbicidal effect, B: Japanese bulrush (Japanese bulrush): 0 (Herbicidal rate of 5% or less (almost no effect)) | herbicidal effect on E: rice flat sedge (rice flat sedge): 5 (Herbicidal rate of 90% or more (almost completely withered)) | P: chickweed, herbicidal effect grade (chickweed [14]; [26]): 5 (Herbicidal rate of 90% or more (almost completely withered)) | R: persian speedwell, herbicidal effect grade (persian speedwell [15]; [26]): 3 (Herbicidal rate of 40% or more and less than 70%) | herbicidal effect, F: southern crabgrass (southern crabgrass [16]): 0 (Herbicidal rate of 5% or less (almost no effect)) | herbicidal effect, K: Italian ryegrass (Italian ryegrass [17]): 0 (Herbicidal rate of 5% or less (almost no effect)) | herbicidal effect on H: barnyard grass (barnyard grass [18]): 5 (Herbicidal rate of 90% or more (almost completely withered)) | M: velvetleaf, herbicidal effect grade (velvetleaf [19]; [26]): 2 (Herbicidal rate of 20% or more and less than 40%) | herbicidal effect, M: velvetleaf (velvetleaf [20]): 1 (Herbicidal rate of 5% or more and less than 20%) | O: lambsquarters, herbicidal effect grade (lambsquarters [21]; [26]): 1 (Herbicidal rate of 5% or more and less than 20%) | herbicidal effect, R: persian speedwell (persian speedwell [22]): 0 (Herbicidal rate of 5% or less (almost no effect)) | N: redroot pigweed, herbicidal effect grade (redroot pigweed [23]; [26]): 3 (Herbicidal rate of 40% or more and less than 70%) | Herbicidal effect, A: late watergrass (late watergrass): 2 (Herbicidal rate of 20% or more and less than 40%) | L: windgrass, herbicidal effect grade (windgrass [24]; [26]): 0 (Herbicidal rate of 5% or less (almost no effect))

Cc1nn(C)c(=O)c(-c2c(-c3ccc(C(C)C)cc3)sc3c(F)cccc23)c1O [4-042]
herbicidal effect on G: green foxtail (evaluation grade 0-5) (green foxtail [1]; [27]): 4 (Herbicidal rate of 70% or more and less than 90%) | Herbicidal effect by soil treatment, Q: false cleavers (false cleavers): 0 (Herbicidal rate of 5% or less (almost no effect)) | herbicidal effect on H: barnyard grass (evaluation grade 0-5) (barnyard grass [2]; [27]): 5 (Herbicidal rate of 90% or more (almost completely withered)) | herbicidal effect on F: southern crabgrass (evaluation grade 0-5) (southern crabgrass [3]; [27]): 1 (Herbicidal rate of 5% or more and less than 20%) | Herbicidal effect by soil treatment, J: blackgrass (blackgrass [4]): 0 (Herbicidal rate of 5% or less (almost no effect)) | herbicidal effect on J: blackgrass (evaluation grade 0-5) (blackgrass [5]; [27]): 0 (Herbicidal rate of 5% or less (almost no effect)) | Herbicidal effect, C: oval-leafed pondweed (oval-leafed pondweed): 0 (Herbicidal rate of 5% or less (almost no effect)) | herbicidal effect on I: wild oat (evaluation grade 0-5) (wild oat [6]; [27]): 0 (Herbicidal rate of 5% or less (almost no effect)) | Herbicidal effect by soil treatment, N: redroot pigweed (redroot pigweed [7]): 4 (Herbicidal rate of 70% or more and less than 90%) | Herbicidal effect by soil treatment, L: windgrass (windgrass [8]): 0 (Herbicidal rate of 5% or less (almost no effect)) | Herbicidal effect by soil treatment, P: chickweed (chickweed [25]): 5 (Herbicidal rate of 90% or more (almost completely withered)) | Herbicidal effect by soil treatment, O: lambsquarters (lambsquarters [9]): 3 (Herbicidal rate of 40% or more and less than 70%) | herbicidal effect on K: Italian ryegrass (evaluation grade 0-5) (Italian ryegrass [10]; [27]): 3 (Herbicidal rate of 40% or more and less than 70%) | Herbicidal effect by soil treatment, I: wild oat (wild oat [11]): 0 (Herbicidal rate of 5% or less (almost no effect)) | Herbicidal effect by soil treatment, G: green foxtail (green foxtail [12]): 0 (Herbicidal rate of 5% or less (almost no effect)) | Herbicidal effect by soil treatment, H: barnyard grass (barnyard grass [13]): 1 (Herbicidal rate of 5% or more and less than 20%) | Herbicidal effect, B: Japanese bulrush (Japanese bulrush): 3 (Herbicidal rate of 40% or more and less than 70%) | herbicidal effect on P: chickweed (evaluation grade 0-5) (chickweed [14]; [27]): 5 (Herbicidal rate of 90% or more (almost completely withered)) | herbicidal effect on R: persian speedwell (evaluation grade 0-5) (persian speedwell [15]; [27]): 5 (Herbicidal rate of 90% or more (almost completely withered)) | Herbicidal effect by soil treatment, F: southern crabgrass (southern crabgrass [16]): 0 (Herbicidal rate of 5% or less (almost no effect)) | Herbicidal effect by soil treatment, K: Italian ryegrass (Italian ryegrass [17]): 0 (Herbicidal rate of 5% or less (almost no effect)) | herbicidal effect on M: velvetleaf (evaluation grade 0-5) (velvetleaf [19]; [27]): 5 (Herbicidal rate of 90% or more (almost completely withered)) | Herbicidal effect by soil treatment, M: velvetleaf (velvetleaf [20]): 1 (Herbicidal rate of 5% or more and less than 20%) | herbicidal effect on O: lambsquarters (evaluation grade 0-5) (lambsquarters [21]; [27]): 4 (Herbicidal rate of 70% or more and less than 90%) | Herbicidal effect by soil treatment, R: persian speedwell (persian speedwell [22]): 3 (Herbicidal rate of 40% or more and less than 70%) | herbicidal effect on N: redroot pigweed (evaluation grade 0-5) (redroot pigweed [23]; [27]): 5 (Herbicidal rate of 90% or more (almost completely withered)) | Herbicidal effect, A: late watergrass (late watergrass): 3 (Herbicidal rate of 40% or more and less than 70%) | herbicidal effect on L: windgrass (evaluation grade 0-5) (windgrass [24]; [27]): 0 (Herbicidal rate of 5% or less (almost no effect))
